Data set [1] concerns Q-less (coq2, coq3, and coq5) yeast mutants. The conditions noted are these: cited from earlier work; for sensitivity of Q-less yeast to treatment: compared with the wild-type parental strain.
Data set [2] relates to wild-type (the parental genetic background is strain W303-1B) cells. As to conditions: following a four hour treatment; 240 min; cited from earlier work.
The subject of data set [3] is Dhcr7-deficient Neuro2a neuroblastoma cells. Nature of the data set: Oxysterol levels in Dhcr7-deficient Neuro2a neuroblastoma cells treated with fatty acid. Type of data set: cell-based. The conditions noted are these: for levels of oxysterols associated with free radical induced oxidation: 20 micromolar, Dhcr7 expression depleted by RNA interference, 7-DHC accumulates. As for the experimental part:
Dhcr7-deficient Neuro2a neuroblastoma cells were treated with D2-linoleic acid, and non-deuterated linoleic acid ("Lin") was used in a control experiment. The level of Dhcr7 gene expression was depleted by RNA interference, leading to accumulation of 7-DHC in the cells. 7-DHC is 1-2 orders of magnitude more oxidizeable than linoleic acid, and so can easily initiate lipid peroxidation (See Yin et al., "Free Radical Lipid Peroxidation: Mechanisms and Analysis," Chem Rev. (2011), 111(10), 5944-5972).

Here are results for five compounds from EP3943081A1, “OPTIC NEUROPATHY TREATMENT AND REDUCTION OF STEROID- INDUCED OXIDATIVE STRESS WITH STABILIZED POLYUNSATURATED SUBSTANCES” (Retrotope, Inc., priority 2014, dated 2015).

As to `CCCCC/C=C\C/C=C\C/C=C\C/C=C\CCCC(=O)O` [arachidonic acid], the “sensitivity of Q-less yeast to treatment” value in data set [1] is recorded as “hypersensitive”.
For the compound `CC/C=C\C/C=C\C/C=C\CCCCCCCC(=O)O` [linolenic acid, cis,cis,cis-9,12,15-Octadecatrienoic acid], the viable wild-type cells in data set [2] is given as 70%. Besides, the “viable Q-less yeast mutants” value in data set [1] (following a four hour treatment, 240 min) is “Less than 1%”.
Regarding `CCCCCCCC/C=C\CCCCCCCC(=O)O` [oleic acid], the “sensitivity of Q-less yeast to treatment” value in data set [1] was “behave the same as the wild-type parental strain”.
For the compound `CCCCC/C=C\C/C=C\CCCCCCCC(=O)O` [Lin, cis, cis-9,12-Octadecadienoic acid], in data set [3], the “levels of oxysterols associated with free radical induced oxidation” value is reported as “substantially increased”.
`[2H]C([2H])(/C=C\CCCCC)/C=C\CCCCCCCC(=O)O` [D2-Lin, 11,11-Dideutero-cis,cis-9,12-Octadecadienoic acid]: the oxidative stress result in data set [3] (20 micromolar (same concentration as Lin), judged by oxysterol levels) was “did not induce oxidative stress”. In addition, the “levels of oxysterols associated with free radical induced oxidation” value in data set [3] is recorded as “low levels”.
